Laboratory results: ChEMBL document CHEMBL3885881, “DrugMatrix”

Species: Rattus norvegicus
Experiment: DrugMatrix - Regimen: Daily Repeat
Type: toxicity, organism-based, Sprague-Dawley
Set-up: regimen Daily Repeat, gender Male, age 6-8 weeks
Details: in vivo, po, route oral GAVAGE, vehicle 100 % WATER; for ABSOLUTE BASOPHIL / ABSOLUTE EOSINOPHIL / ABSOLUTE LYMPHOCYTE / ABSOLUTE MONOCYTE / ABSOLUTE SEGMENTED NEUTROPHIL / BASOPHIL / EOSINOPHIL / ERYTHROCYTE COUNT / HEMATOCRIT / HEMOGLOBIN / LEUKOCYTE COUNT / LYMPHOCYTE / MEAN CORPUSCULAR HEMOGLOBIN / MEAN CORPUSCULAR HEMOGLOBIN CONCENTRATION / MEAN CORPUSCULAR VOLUME / MONOCYTE / NEUTROPHIL / NUCLEATED RED BLOOD CELLS / PLATELET COUNT: tissue Blood; for ALANINE AMINOTRANSFERASE / ALKALINE PHOSPHATASE / ASPARTATE AMINOTRANSFERASE / BLOOD UREA NITROGEN / CARBON DIOXIDE / CHLORIDE / CHOLESTEROL / CREATINE PHOSPHOKINASE / CREATININE / GLUCOSE / LACTATE DEHYDROGENASE / LIPASE / PHOSPHORUS / POTASSIUM / SODIUM / TOTAL BILIRUBIN / TOTAL PROTEIN / URIC ACID: tissue Plasma
[1] = 0 mg/kg, 72 h, dose level Control, time 3 day
[2] = 0 mg/kg, 120 h, dose level Control, time 5 day
[3] = 46 mg/kg, 72 h, dose level Low, time 3 day
[4] = 46 mg/kg, 120 h, dose level Low, time 5 day

O=C1NC(=O)C(c2ccccc2)(c2ccccc2)N1 [PHENYTOIN]
ABSOLUTE BASOPHIL [1]: 0 CELLS/uL | ABSOLUTE EOSINOPHIL [1]: 123.17 CELLS/uL | ABSOLUTE LYMPHOCYTE [1]: 12677.83 CELLS/uL | ABSOLUTE MONOCYTE [1]: 66.17 CELLS/uL | ABSOLUTE SEGMENTED NEUTROPHIL [1]: 1149.5 CELLS/uL | BASOPHIL [1]: 0% | EOSINOPHIL [1]: 0.83% | ERYTHROCYTE COUNT [1]: 5.26 x10E6/uL | HEMATOCRIT [1]: 33.07% | HEMOGLOBIN [1]: 13.43 G/DL | LEUKOCYTE COUNT [1]: 14.02 x10E3/uL | LYMPHOCYTE [1]: 90.17% | MEAN CORPUSCULAR HEMOGLOBIN [1]: 25.62 pg | MEAN CORPUSCULAR HEMOGLOBIN CONCENTRATION [1]: 40.65 G/DL | MEAN CORPUSCULAR VOLUME [1]: 63 fL | MONOCYTE [1]: 0.5% | NEUTROPHIL [1]: 8.5% | NUCLEATED RED BLOOD CELLS [1]: 0.17 /100WBC | PLATELET COUNT [1]: 1142.83 x10E3/uL | ALANINE AMINOTRANSFERASE [1]: 45.17 u/L | ALKALINE PHOSPHATASE [1]: 340.17 u/L | ASPARTATE AMINOTRANSFERASE [1]: 77.33 u/L | BLOOD UREA NITROGEN [1]: 14.67 mg/dL | CARBON DIOXIDE [1]: 28.67 mmol/L | CHLORIDE [1]: 101.17 MEQ/L | CHOLESTEROL [1]: 77.67 mg/dL | CREATINE PHOSPHOKINASE [1]: 263.67 u/L | CREATININE [1]: 0.15 mg/dL | GLUCOSE [1]: 169.33 mg/dL | LACTATE DEHYDROGENASE [1]: 230 u/L | LIPASE [1]: 9.67 u/L | PHOSPHORUS [1]: 11.8 mg/dL | POTASSIUM [1]: 5.91 MEQ/L | SODIUM [1]: 142.88 MEQ/L | TOTAL BILIRUBIN [1]: 0.22 mg/dL | TOTAL PROTEIN [1]: 5.7 G/DL | URIC ACID [1]: 1.35 mg/dL | ABSOLUTE BASOPHIL [2]: 0 CELLS/uL | ABSOLUTE EOSINOPHIL [2]: 125 CELLS/uL | ABSOLUTE LYMPHOCYTE [2]: 13809 CELLS/uL | ABSOLUTE MONOCYTE [2]: 351 CELLS/uL | ABSOLUTE SEGMENTED NEUTROPHIL [2]: 1581.67 CELLS/uL | BASOPHIL [2]: 0% | EOSINOPHIL [2]: 0.67% | ERYTHROCYTE COUNT [2]: 5.53 x10E6/uL | HEMATOCRIT [2]: 34.83% | HEMOGLOBIN [2]: 13.9 G/DL | LEUKOCYTE COUNT [2]: 15.87 x10E3/uL | LYMPHOCYTE [2]: 87.5% | MEAN CORPUSCULAR HEMOGLOBIN [2]: 25.25 pg | MEAN CORPUSCULAR HEMOGLOBIN CONCENTRATION [2]: 40.08 G/DL | MEAN CORPUSCULAR VOLUME [2]: 63.05 fL | MONOCYTE [2]: 2.17% | NEUTROPHIL [2]: 9.67% | NUCLEATED RED BLOOD CELLS [2]: 0 /100WBC | PLATELET COUNT [2]: 1044 x10E3/uL | ALANINE AMINOTRANSFERASE [2]: 50.67 u/L | ALKALINE PHOSPHATASE [2]: 395 u/L | ASPARTATE AMINOTRANSFERASE [2]: 86 u/L | BLOOD UREA NITROGEN [2]: 15.33 mg/dL | CARBON DIOXIDE [2]: 29.33 mmol/L | CHLORIDE [2]: 101.5 MEQ/L | CHOLESTEROL [2]: 71.33 mg/dL | CREATINE PHOSPHOKINASE [2]: 323.17 u/L | CREATININE [2]: 0.18 mg/dL | GLUCOSE [2]: 145.67 mg/dL | LACTATE DEHYDROGENASE [2]: 389.5 u/L | LIPASE [2]: 9.83 u/L | PHOSPHORUS [2]: 11.35 mg/dL | POTASSIUM [2]: 6.39 MEQ/L | SODIUM [2]: 142.77 MEQ/L | TOTAL BILIRUBIN [2]: 0.18 mg/dL | TOTAL PROTEIN [2]: 6.1 G/DL | URIC ACID [2]: 1.52 mg/dL | ABSOLUTE BASOPHIL [3]: 0 CELLS/uL | ABSOLUTE EOSINOPHIL [3]: 0 CELLS/uL | ABSOLUTE LYMPHOCYTE [3]: 15884.67 CELLS/uL | ABSOLUTE MONOCYTE [3]: 0 CELLS/uL | ABSOLUTE SEGMENTED NEUTROPHIL [3]: 1248.67 CELLS/uL | BASOPHIL [3]: 0% | EOSINOPHIL [3]: 0% | ERYTHROCYTE COUNT [3]: 5.58 x10E6/uL | HEMATOCRIT [3]: 35.6% | HEMOGLOBIN [3]: 14.27 G/DL | LEUKOCYTE COUNT [3]: 17.13 x10E3/uL | LYMPHOCYTE [3]: 93% | MEAN CORPUSCULAR HEMOGLOBIN [3]: 25.63 pg | MEAN CORPUSCULAR HEMOGLOBIN CONCENTRATION [3]: 40.1 G/DL | MEAN CORPUSCULAR VOLUME [3]: 63.9 fL | MONOCYTE [3]: 0% | NEUTROPHIL [3]: 7% | NUCLEATED RED BLOOD CELLS [3]: 0 /100WBC | PLATELET COUNT [3]: 1336.33 x10E3/uL | ALANINE AMINOTRANSFERASE [3]: 48.67 u/L | ALKALINE PHOSPHATASE [3]: 344.67 u/L | ASPARTATE AMINOTRANSFERASE [3]: 69.33 u/L | BLOOD UREA NITROGEN [3]: 13.67 mg/dL | CARBON DIOXIDE [3]: 33.67 mmol/L | CHLORIDE [3]: 99.67 MEQ/L | CHOLESTEROL [3]: 68.67 mg/dL | CREATINE PHOSPHOKINASE [3]: 151.67 u/L | CREATININE [3]: 0.12 mg/dL | GLUCOSE [3]: 146 mg/dL | LACTATE DEHYDROGENASE [3]: 81.33 u/L | LIPASE [3]: 10 u/L | PHOSPHORUS [3]: 11.37 mg/dL | POTASSIUM [3]: 6.96 MEQ/L | SODIUM [3]: 142.8 MEQ/L | TOTAL BILIRUBIN [3]: 0.2 mg/dL | TOTAL PROTEIN [3]: 5.7 G/DL | URIC ACID [3]: 1.53 mg/dL | ABSOLUTE BASOPHIL [4]: 0 CELLS/uL | ABSOLUTE EOSINOPHIL [4]: 40.67 CELLS/uL | ABSOLUTE LYMPHOCYTE [4]: 11032 CELLS/uL | ABSOLUTE MONOCYTE [4]: 233.67 CELLS/uL | ABSOLUTE SEGMENTED NEUTROPHIL [4]: 793.67 CELLS/uL | BASOPHIL [4]: 0% | EOSINOPHIL [4]: 0.33% | ERYTHROCYTE COUNT [4]: 5.47 x10E6/uL | HEMATOCRIT [4]: 33.93% | HEMOGLOBIN [4]: 13.63 G/DL | LEUKOCYTE COUNT [4]: 12.1 x10E3/uL | LYMPHOCYTE [4]: 91.33% | MEAN CORPUSCULAR HEMOGLOBIN [4]: 24.93 pg | MEAN CORPUSCULAR HEMOGLOBIN CONCENTRATION [4]: 40.17 G/DL | MEAN CORPUSCULAR VOLUME [4]: 62 fL | MONOCYTE [4]: 2% | NEUTROPHIL [4]: 6.33% | NUCLEATED RED BLOOD CELLS [4]: 0 /100WBC | PLATELET COUNT [4]: 1416.33 x10E3/uL | ALANINE AMINOTRANSFERASE [4]: 54 u/L | ALKALINE PHOSPHATASE [4]: 319.67 u/L | ASPARTATE AMINOTRANSFERASE [4]: 264.33 u/L | BLOOD UREA NITROGEN [4]: 17 mg/dL | CARBON DIOXIDE [4]: 24.67 mmol/L | CHLORIDE [4]: 104.33 MEQ/L | CHOLESTEROL [4]: 61.67 mg/dL | CREATINE PHOSPHOKINASE [4]: 2442.67 u/L | CREATININE [4]: 0.27 mg/dL | GLUCOSE [4]: 152 mg/dL | LACTATE DEHYDROGENASE [4]: 827.67 u/L | LIPASE [4]: 10.67 u/L | PHOSPHORUS [4]: 13.43 mg/dL | POTASSIUM [4]: 7.35 MEQ/L | SODIUM [4]: 144.9 MEQ/L | TOTAL BILIRUBIN [4]: 0.2 mg/dL | TOTAL PROTEIN [4]: 6 G/DL | URIC ACID [4]: 3.3 mg/dL
